Data: patent US20200317660A1, “Quinazolinone Compound and Application Thereof” (LUOXIN PHARMACEUTICAL (SHANGHAI) CO., LTD., priority 2017, published 2020)
pIC50: −log10 of the molar value.

Tests used:
PI3Kβ = target: T1, PI3Kβ (Homo sapiens, UniProt P42338); assay: In vitro test of enzyme activity (ADP-Glo lipokinase), PI3K beta; type: biochemical; settings: 40 μM ATP, 50 μM PIP2:3PS, 120 min
T1 construct: purchased Promega V1751

[1] = In vivo DMPK study in mice after a single administration; set-up: species or system female Balb/c mice; settings: female, Balb/c, mouse, plasma, intravenous 1 mg/kg
Description: Experimental objective: female Balb/c mice were used as the test animals, and the blood concentration of the compound was determined and the pharmacokinetic behavior was evaluated after a single administration.
Experimental operation: 12 healthy adult female Balb/c mice were selected, 6 for intravenous injection group and 6 for oral administration group. The compound to be tested was mixed with an appropriate amount of intravenous injection group vehicle (10% HP-betaCD: 10% solutol=1:1, pH=8), vortex-mixed and sonicated to prepare a 1.0 mg/mL clear solution, followed by filtration for subsequent use; the vehicle in the oral group was 0.5% MC/0.2% Tw80. After the test compound and the vehicle were mixed, it was vortex-mixed and sonicated to prepare a 1.0 mg/mL homogeneous suspension for subsequent use. After an intravenous administration at a dose of 1 mg/kg or an oral administration at the dose of 2 mg/kg and 10 mg/kg, whole blood of the mice was collected for a certain period of time to prepare plasma. The drug concentration was analyzed by LC-MS/MS method, and Phoenix WinNonlin software was used (Pharsight, USA) to calculate the pharmacokinetic parameters.
Cmax: the highest concentration of the drug in the body; F %: oral bioavailability; Oral DNAUC: area under the dose normalization curve; Vd: apparent volume of distribution; Cl: clearance rate; T1/2: half-life.

[2] = system: human ovarian cancer SK-OV-3 cells; assay: Subcutaneous xenograft tumor model of human ovarian cancer SK-OV-3 cells; type: in vivo, BALB/c nude mouse; settings: SK-OV-3 xenograft, 30 mpk
Description: (2) BALB/c nude mouse subcutaneous xenograft tumor model of human ovarian cancer SK-OV-3 cells
Human ovarian cancer SK-OV-3 cells (ECACC-91091004) were subjected to in vitro monolayer culture, and the culture conditions were: McCoy's 5a medium (Gibco, 16600-082) with 10% fetal bovine serum and 100 U/mL penicillin and 100 µg/mL streptomycin, 37° C. and 5% CO2 incubator. The cells were passaged by digestion with trypsin-EDTA twice a week. When the cells saturation reached 80%-90%, the cells were collected, counted, and inoculated.
0.2 mL of 10×10^6 SK-OV-3 cells were subcutaneously inoculated into the right back of each nude mouse (PBS:Matrigel=1:1). When the average tumor volume reached 200 mm^3, 48 tumor-bearing mice were divided into 8 groups by stratified random method with 6 mice in each group, which were administered on the day of grouping.
Preparation of Test Substance
Vehicle group: 2.0 g of methyl cellulose was weighed in a 500 mL glass bottle, followed by addition of 399.2 mL of ddH2O and 0.8 mL of Tween 80. […]
The experimental index was to evaluate whether the tumor growth was inhibited, delayed or cured. The diameter of the tumor was measured with a vernier caliper twice a week. […]
The antitumor efficacy of the compound was evaluated by TGI (%) or relative tumor proliferation rate T/C (%). […]

T1 sequence (P42338 whole entry): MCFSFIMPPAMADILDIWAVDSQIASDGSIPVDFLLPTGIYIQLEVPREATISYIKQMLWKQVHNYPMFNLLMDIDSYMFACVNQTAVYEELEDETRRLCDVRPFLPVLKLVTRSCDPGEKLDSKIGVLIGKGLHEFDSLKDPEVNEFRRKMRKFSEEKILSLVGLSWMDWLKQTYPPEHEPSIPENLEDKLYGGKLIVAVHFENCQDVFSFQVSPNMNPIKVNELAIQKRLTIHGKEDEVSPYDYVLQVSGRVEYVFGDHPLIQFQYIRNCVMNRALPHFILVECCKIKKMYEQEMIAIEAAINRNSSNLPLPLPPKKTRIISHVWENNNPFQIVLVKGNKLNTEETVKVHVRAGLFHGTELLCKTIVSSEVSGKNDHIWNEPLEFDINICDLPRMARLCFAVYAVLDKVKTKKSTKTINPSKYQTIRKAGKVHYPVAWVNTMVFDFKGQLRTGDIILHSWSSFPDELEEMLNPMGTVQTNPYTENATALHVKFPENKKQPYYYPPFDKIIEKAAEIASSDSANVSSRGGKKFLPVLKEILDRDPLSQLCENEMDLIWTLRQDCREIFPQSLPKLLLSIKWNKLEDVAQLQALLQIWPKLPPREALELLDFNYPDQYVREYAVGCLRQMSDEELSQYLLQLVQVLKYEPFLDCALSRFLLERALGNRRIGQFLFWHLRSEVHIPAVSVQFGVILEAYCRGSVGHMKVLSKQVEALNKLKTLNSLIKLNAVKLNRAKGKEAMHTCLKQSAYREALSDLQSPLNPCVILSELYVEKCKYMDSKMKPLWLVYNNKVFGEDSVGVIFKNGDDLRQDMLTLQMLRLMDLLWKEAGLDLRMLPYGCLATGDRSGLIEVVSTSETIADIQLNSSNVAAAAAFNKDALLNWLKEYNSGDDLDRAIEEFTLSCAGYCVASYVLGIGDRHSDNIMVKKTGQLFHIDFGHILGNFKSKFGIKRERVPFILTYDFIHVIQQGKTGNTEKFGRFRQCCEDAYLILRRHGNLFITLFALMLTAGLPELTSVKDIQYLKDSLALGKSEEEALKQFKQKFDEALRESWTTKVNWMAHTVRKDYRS
T1 sequence (P27986 whole entry partner): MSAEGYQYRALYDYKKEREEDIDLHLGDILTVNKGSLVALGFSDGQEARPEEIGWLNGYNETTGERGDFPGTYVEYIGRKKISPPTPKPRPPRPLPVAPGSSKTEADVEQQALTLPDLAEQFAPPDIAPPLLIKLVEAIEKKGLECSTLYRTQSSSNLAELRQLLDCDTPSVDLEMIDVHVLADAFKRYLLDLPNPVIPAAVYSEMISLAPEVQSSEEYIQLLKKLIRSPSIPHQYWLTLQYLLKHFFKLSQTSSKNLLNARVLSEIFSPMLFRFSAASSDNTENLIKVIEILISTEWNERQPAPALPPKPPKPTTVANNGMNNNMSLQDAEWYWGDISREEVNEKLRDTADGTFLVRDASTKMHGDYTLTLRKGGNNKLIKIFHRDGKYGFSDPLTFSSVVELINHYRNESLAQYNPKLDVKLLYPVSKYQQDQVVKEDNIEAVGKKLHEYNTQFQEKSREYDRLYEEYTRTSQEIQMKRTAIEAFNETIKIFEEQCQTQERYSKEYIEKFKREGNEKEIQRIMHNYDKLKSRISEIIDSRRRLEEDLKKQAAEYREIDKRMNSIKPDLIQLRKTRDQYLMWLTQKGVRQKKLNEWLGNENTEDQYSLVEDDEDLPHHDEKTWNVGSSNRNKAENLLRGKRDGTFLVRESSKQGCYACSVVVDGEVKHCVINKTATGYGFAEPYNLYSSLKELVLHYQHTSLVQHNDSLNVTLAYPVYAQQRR

pIC50 (PI3Kβ): 7.48
clearance ([1]; read-out: Cl (clearance rate)): 4.16 mL/min/kg
half-life ([1]; read-out: Intravenous injection T1/2 (converted)): 53.4 min
Vd ([1]; read-out: Vd (apparent volume of distribution)): 0.257 L/kg
SMILES: CNC(=O)CCCn1cnc2ccc(-c3cnc(OC)c(NS(=O)(=O)c4ccc(F)cc4Cl)c3)cc2c1=O [WX198]
TGI % [2]: 62.6%
